Assay results: US20220402862A1 (Intellia Therapeutics, Inc., priority 2019, published 2022)

Key:
Format in all cases: physicochemical
[1] = Dynamic light scattering of LNPs: Z-average diameter, number average diameter, PDI; settings: LNP, sg:mRNA 1:1, N/P about 6, 50/9/38/3; Table 2, Experiments 2-20
Procedure: Dynamic Light Scattering (“DLS”) is used to characterize the polydispersity index (“PDI”) and size of the LNPs of the present disclosure. DLS measures the scattering of light that results from subjecting a sample to a light source. PDI, as determined from DLS measurements, represents the distribution of particle size (around the mean particle size) in a population, with a perfectly uniform population having a PDI of zero.
LNP compositions are analyzed for average particle size, polydispersity index (PDI), total RNA content, encapsulation efficiency of RNA, and zeta potential. LNP compositions may be further characterized by lipid analysis, AF4-MALS, NTA, and/or cryo-EM. Average particle size and polydispersity are measured by dynamic light scattering (DLS) using a Malvern Zetasizer DLS instrument or Wyatt NanoStar. LNP samples were diluted with PBS buffer prior to being measured by DLS. Z-average diameter which is an intensity-based measurement of average particle size is reported along with number average diameter and PDI. A Malvern Zetasizer or Wyatt NanoStar instrument is also used to measure the zeta potential of the LNP. Samples are diluted 1:17 (50 μL into 800 μL) in 0.1× PBS, pH 7.4 prior to measurement.

[2] = RNA encapsulation efficiency of LNPs (Ribogreen fluorescence assay); settings: LNP, sg:mRNA 1:1, N/P about 6, amine lipid/DSPC/cholesterol/PEG-2k-DMG 50/9/38/3; Table 2, Experiments 2-20
Procedure: A fluorescence-based assay (Ribogreen®, ThermoFisher Scientific) is used to determine total RNA concentration and free RNA. Encapsulation efficiency is calculated as (Total RNA-Free RNA)/Total RNA. LNP samples are diluted appropriately with 1× TE buffer containing 0.2% Triton-X 100 to determine total RNA or 1× TE buffer to determine free RNA. Standard curves are prepared by utilizing the starting RNA solution used to make the compositions and diluted in 1× TE buffer +/− 0.2% Triton-X 100. Diluted RiboGreen® dye (according to the manufacturer's instructions) is then added to each of the standards and samples and allowed to incubate for approximately 10 minutes at room temperature, in the absence of light. A SpectraMax M5 Microplate Reader (Molecular Devices) is used to read the samples with excitation, auto cutoff and emission wavelengths set to 488 nm, 515 nm, and 525 nm respectively. Total RNA and free RNA are determined from the appropriate standard curves.
Encapsulation efficiency is calculated as (Total RNA-Free RNA)/Total RNA. The same procedure may be used for determining the encapsulation efficiency of a DNA-based cargo component. In a fluorescence-based assay, for single-strand DNA Oligreen Dye may be used, and for double-strand DNA, Picogreen Dye. Alternatively, the total RNA concentration can be determined by a reverse-phase ion-pairing (RP-IP) HPLC method. Triton X-100 is used to disrupt the LNPs, releasing the RNA. The RNA is then separated from the lipid components chromatographically by RP-IP HPLC and quantified against a standard curve using UV absorbance at 260 nm.

[3] = pKa measurement of unformulated amine lipid (fluorescence, method of Jayaraman et al.); settings: 100 μM in 0.1 M phosphate buffer, pH 2.0-12.0
Procedure: The pKa of each amine lipid was determined according to the method in Jayaraman, et al. (Angewandte Chemie, 2012) with the following adaptations. […] Lipid was diluted to 100 μM in 0.1 M phosphate buffer (Boston Bioproducts) where the pH ranged from 2.0-12.0. Fluorescence intensity was measured using excitation and emission wavelengths of 321 nm and 448 nm.

SMILES | Number mean (nm) [1] [nm] | PDI [1] | Z-avg (nm) [1] [nm] | Encapsulation (%) [2] [%] | pKa [3]
CCCCC/C=C\C/C=C\CCCCCCCC(=O)OCC(COC(=O)CCC(OCCCCCCCC)OCCCCCCCC)OC(=O)OCCCN(CC)CC (stereo not drawn) [Compound 97, 3-((4,4-bis(octyloxy)butanoyl)oxy)-2-(((3-(diethylamino)propoxy)carbonyl)oxy)propyl (9Z,12Z)-octadeca-9,12-dienoate] | 55.14 | 0.037 | 68.66 | 98 | 6.09
CCCCC/C=C\C/C=C\CCCCCCCC(=O)OCC(COC(=O)OCCCN(CC)CC)COC(=O)C(CCCCCC)CCCCCCCC (stereo not drawn) [Compound 65, 3-(((3-(diethylamino)propoxy)carbonyl)oxy)-2-(((2-hexyldecanoyl)oxy)methyl)propyl (9Z,12Z)-octadeca-9,12-dienoate] | 55.76 | 0.034 | 70.19 | 98 | 5.88
CCCCCCCCOC(=O)CCCCCCCC(=O)OCC(COC(=O)CCC(OCCCCCCCC)OCCCCCCCC)COC(=O)OCCCN(CC)CC (stereo not drawn) [Compound 58, 1-(3-((4,4-bis(octyloxy)butanoyl)oxy)-2-((((3-(diethylamino)propoxy)carbonyl)oxy)methyl)propyl) 9-octyl nonanedioate] | 72.42 | 0.029 | 89.07 | 95 | 6.4
CCCCC/C=C\C/C=C\CCCCCCCC(=O)OCC(COC(=O)CCCC(CCCCCCC)CCCCCCC)COC(=O)OCCCN(CC)CC (stereo not drawn) [Compound 67, 3-(((3-(diethylamino)propoxy)carbonyl)oxy)-2-(((5-heptyldodecanoyl)oxy)methyl)propyl (9Z,12Z)-octadeca-9,12-dienoate] | 56.56 | 0.025 | 69.85 | 99 | 6.19
CCCCCC/C=C\COC(=O)CCCCCCCCCC(=O)OCC(COC(=O)CCC(OCCCCCCCC)OCCCCCCCC)COC(=O)OCCCN(CC)CC (stereo not drawn) [Compound 69, (Z)-1-(3-((4,4-bis(octyloxy)butanoyl)oxy)-2-((((3-(diethylamino)propoxy)carbonyl)oxy)methyl)propyl) 11-(non-2-en-1-yl) undecanedioate] | 68.12 | 0.026 | 85.11 | 98 | 6.18
CCCCC/C=C\C/C=C\CCCCCCCC(=O)OCC(COC(=O)CC(CCCCCCCC)CCCCCCCC)COC(=O)OCCCN(CC)CC (stereo not drawn) [Compound 66, 3-(((3-(diethylamino)propoxy)carbonyl)oxy)-2-(((3-octylundecanoyl)oxy)methyl)propyl (9Z,12Z)-octadeca-9,12-dienoate] | 44.03 | 0.071 | 58.54 | 98 | 6.06
CCCCCC/C=C\COC(=O)CCCCCCCCCCCC(=O)OCC(COC(=O)CCC(OCCCCCCCC)OCCCCCCCC)COC(=O)OCCCN(CC)CC (stereo not drawn) [Compound 70, (Z)-1-(3-((4,4-bis(octyloxy)butanoyl)oxy)-2-((((3-(diethylamino)propoxy)carbonyl)oxy)methyl)propyl) 13-(non-2-en-1-yl) tridecanedioate] | 66.78 | 0.017 | 83.47 | 98 | 6.02

Continued, values first:

Number mean (nm) [1] [nm] | PDI [1] | Z-avg (nm) [1] [nm] | Encapsulation (%) [2] [%] | pKa [3] | SMILES
74 | 0.003 | 89 | 99 | 7.1 | CCCCC/C=C\C/C=C\CCCCCCCC(=O)OCC(COCCCN(CC)CC)COC(=O)CCC(OCCCCCCCC)OCCCCCCCC (stereo not drawn) [Compound 99, 3-((4,4-bis(octyloxy)butanoyl)oxy)-2-((3-(diethylamino)propoxy)methyl)propyl (9Z,12Z)-octadeca-9,12-dienoate]
57 | 0.02 | 70 | 99 | 6.4 | CCCCC/C=C\C/C=C\CCCCCCCC(=O)OCC(COCCN(CC)CC)COC(=O)CCC(OCCCCCCCC)OCCCCCCCC (stereo not drawn) [Compound 98, 3-((4,4-bis(octyloxy)butanoyl)oxy)-2-((2-(diethylamino)ethoxy)methyl)propyl (9Z,12Z)-octadeca-9,12-dienoate]
64.05 | 0.019 | 79.37 | 98 | 6.09 | CCCCC/C=C\C/C=C\CCCCCCCC(=O)OCC(COC(=O)CCCC(=O)OC(CCCCCCCC)CCCCCCCC)COC(=O)OCCCN(CC)CC (stereo not drawn) [Compound 63, 3-(((3-(diethylamino)propoxy)carbonyl)oxy)-2-((((9Z,12Z)-octadeca-9,12-dienoyl)oxy)methyl)propyl heptadecan-9-yl glutarate]
69.25 | 0.032 | 85.16 | 98 | 6.08 | CCCCC/C=C\C/C=C\CCCCCCCC(=O)OCC(COC(=O)CCCCCC(=O)OC(CCCCCCCC)CCCCCCCC)COC(=O)OCCCN(CC)CC (stereo not drawn) [Compound 64, 1-(3-(((3-(diethylamino)propoxy)carbonyl)oxy)-2-((((9Z,12Z)-octadeca-9,12-dienoyl)oxy)methyl)propyl) 7-(heptadecan-9-yl) heptanedioate]
84.46 | 0.022 | 104.2 | 97 | 6.38 | CCCCCCCCOC(CCC(=O)OCC(COC(=O)CCCCCCCCCCC(=O)OCCCCC)COC(=O)OCCCN(CC)CC)OCCCCCCCC (stereo not drawn) [Compound 60, 1-(3-((4,4-bis(octyloxy)butanoyl)oxy)-2-((((3-(diethylamino)propoxy)carbonyl)oxy)methyl)propyl) 12-pentyl dodecanedioate]
83.41 | 0.011 | 102 | 89 | 6.59 | CCCCCCCCOC(CCC(=O)OCC(COC(=O)CCCCCCCC(=O)OCCCCCC)COC(=O)OCCCN(CC)CC)OCCCCCCCC (stereo not drawn) [Compound 57, 1-(3-((4,4-bis(octyloxy)butanoyl)oxy)-2-((((3-(diethylamino)propoxy)carbonyl)oxy)methyl)propyl) 9-hexyl nonanedioate]
60.04 | 0.008 | 72.71 | 98 | 6.1 | CCCCC/C=C\C/C=C\CCCCCCCC(=O)OCC(COC(=O)CCCCCC(CCCCCC)CCCCCC)COC(=O)OCCCN(CC)CC (stereo not drawn) [Compound 68, 3-(((3-(diethylamino)propoxy)carbonyl)oxy)-2-(((7-hexyltridecanoyl)oxy)methyl)propyl (9Z,12Z)-octadeca-9,12-dienoate]
59.35 | 0.044 | 73.46 | 98 | 6.03 | CCCCC/C=C\C/C=C\CCCCCCCC(=O)OCC(COC(=O)CCCCC(OCCCCCCCC)OCCCCCCCC)COC(=O)OCCCN(CC)CC (stereo not drawn) [Compound 62, 3-((6,6-bis(octyloxy)hexanoyl)oxy)-2-((((3-(diethylamino)propoxy)carbonyl)oxy)methyl)propyl (9Z,12Z)-octadeca-9,12-dienoate]
